Measured values reported in ChEMBL document CHEMBL2413040, “Ligand/kappa-opioid receptor interactions: insights from the X-ray crystal structure” (Eur J Med Chem, 2013).

Assay: Binding affinity to kappa opioid receptor in guinea pig cerebral cortex after 2.5 hrs
Assay type: tissue-based, Cavia porcellus

Which Ki does the source give for `CCCC[C@@H](NC(=O)[C@H](Cc1ccccc1)NC(=O)[C@@H](N)Cc1ccccc1)C(=O)N[C@@H](CC1CCCCC1)C(N)=O` here?
The Ki was 26 nM.

With `CCCC[C@@H](NC(=O)[C@H](Cc1ccc2ccccc2c1)NC(=O)[C@@H](N)Cc1ccccc1)C(=O)N[C@@H](CC1CCCCC1)C(N)=O` as the compound, how does the Ki read?
Its Ki is 33 nM.

For `CCCC[C@H](N)C(=O)N[C@@H](Cc1ccccc1)C(=O)N[C@@H](C(=O)N[C@@H](CC1CCCCC1)C(N)=O)[C@@H](C)CC`, which Ki is on record?
Its Ki is 341 nM.

With `CCCC[C@H](N)C(=O)N[C@@H](Cc1ccccc1)C(=O)N[C@H](Cc1c[nH]c2ccccc12)C(=O)N[C@@H](CCCNC(=N)N)C(N)=O` as the compound, how does the Ki read?
The Ki was 4550 nM.

For `CC[C@H](C)[C@@H](NC(=O)[C@H](Cc1ccc2ccccc2c1)NC(=O)[C@@H](N)Cc1ccccc1)C(=O)N[C@@H](CCCNC(=N)N)C(N)=O`, which Ki is on record?
The Ki was 3.6 nM.

With `CCCC[C@H](N)C(=O)N[C@@H](Cc1ccccc1)C(=O)N[C@H](CCCC)C(=O)N[C@@H](CCCNC(=N)N)C(N)=O` as the compound, how does the Ki read?
Its Ki is 4.2 nM.

Which Ki does the source give for `N=C(N)NCCC[C@H](NC(=O)[C@@H](Cc1c[nH]c2ccccc12)NC(=O)[C@H](Cc1ccc2ccccc2c1)NC(=O)[C@@H](N)Cc1ccccc1)C(N)=O` here?
Its Ki is 1150 nM.

With `CCCC[C@H](N)C(=O)N[C@@H](Cc1ccc2ccccc2c1)C(=O)N[C@@H](C(=O)N[C@@H](CC1CCCCC1)C(N)=O)[C@@H](C)CC` as the compound, how does the Ki read?
The Ki was 56 nM.

With `CCCC[C@H](N)C(=O)N[C@@H](Cc1ccc2ccccc2c1)C(=O)N[C@H](CCCC)C(=O)N[C@@H](CC1CCCCC1)C(N)=O` as the compound, how does the Ki read?
Its Ki is 27 nM.

Which Ki does the source give for `NC(=O)[C@H](CC1CCCCC1)NC(=O)[C@@H](Cc1c[nH]c2ccccc12)NC(=O)[C@H](Cc1ccccc1)NC(=O)[C@@H](N)Cc1ccccc1` here?
Its Ki is 10000 nM.

For `CCCC[C@@H](NC(=O)[C@H](Cc1ccccc1)NC(=O)[C@@H](N)Cc1ccccc1)C(=O)N[C@@H](CCCNC(=N)N)C(N)=O`, which Ki is on record?
Its Ki is 1.2 nM.

For `CC[C@H](C)[C@@H](NC(=O)[C@H](Cc1ccccc1)NC(=O)[C@@H](N)Cc1ccccc1)C(=O)N[C@@H](CC1CCCCC1)C(N)=O`, which Ki is on record?
Its Ki is 64 nM.

Which Ki does the source give for `CCCC[C@H](N)C(=O)N[C@@H](Cc1ccccc1)C(=O)N[C@H](CCCC)C(=O)N[C@@H](CC1CCCCC1)C(N)=O` here?
Its Ki is 71 nM.

Which Ki does the source give for `NC(=O)[C@H](CC1CCCCC1)NC(=O)[C@@H](Cc1c[nH]c2ccccc12)NC(=O)[C@H](Cc1ccc2ccccc2c1)NC(=O)[C@@H](N)Cc1ccccc1` here?
Its Ki is 6000 nM.

For `CCCC[C@H](N)C(=O)N[C@@H](Cc1ccc2ccccc2c1)C(=O)N[C@H](CCCC)C(=O)N[C@@H](CCCNC(=N)N)C(N)=O`, which Ki is on record?
The Ki was 2.3 nM.

With `CCCC[C@H](N)C(=O)N[C@@H](Cc1ccc2ccccc2c1)C(=O)N[C@@H](C(=O)N[C@@H](CCCNC(=N)N)C(N)=O)[C@@H](C)CC` as the compound, how does the Ki read?
Its Ki is 1.5 nM.

Which Ki does the source give for `CC[C@H](C)[C@@H](NC(=O)[C@H](Cc1ccc2ccccc2c1)NC(=O)[C@@H](N)Cc1ccccc1)C(=O)N[C@@H](CC1CCCCC1)C(N)=O` here?
The Ki was 53 nM.

Which Ki does the source give for `CC[C@H](C)[C@@H](NC(=O)[C@H](Cc1ccccc1)NC(=O)[C@@H](N)Cc1ccccc1)C(=O)N[C@@H](CCCNC(=N)N)C(N)=O` here?
Its Ki is 2.4 nM.

With `CCCC[C@H](N)C(=O)N[C@@H](Cc1ccccc1)C(=O)N[C@@H](C(=O)N[C@@H](CCCNC(=N)N)C(N)=O)[C@@H](C)CC` as the compound, how does the Ki read?
Its Ki is 9.3 nM.

With `CCCC[C@@H](NC(=O)[C@H](Cc1ccc2ccccc2c1)NC(=O)[C@@H](N)Cc1ccccc1)C(=O)N[C@@H](CCCNC(=N)N)C(N)=O` as the compound, how does the Ki read?
Its Ki is 7.1 nM.

Which Ki does the source give for `N=C(N)NCCC[C@H](NC(=O)[C@@H](Cc1c[nH]c2ccccc12)NC(=O)[C@H](Cc1ccccc1)NC(=O)[C@@H](N)Cc1ccccc1)C(N)=O` here?
The Ki was 1140 nM.

With `CCCC[C@H](N)C(=O)N[C@@H](Cc1ccccc1)C(=O)N[C@H](Cc1c[nH]c2ccccc12)C(=O)N[C@@H](CC1CCCCC1)C(N)=O` as the compound, how does the Ki read?
The Ki was 10000 nM.

For `CCCC[C@H](N)C(=O)N[C@@H](Cc1ccc2ccccc2c1)C(=O)N[C@H](Cc1c[nH]c2ccccc12)C(=O)N[C@@H](CCCNC(=N)N)C(N)=O`, which Ki is on record?
The Ki was 1760 nM.

Which Ki does the source give for `CCCC[C@H](N)C(=O)N[C@@H](Cc1ccc2ccccc2c1)C(=O)N[C@H](Cc1c[nH]c2ccccc12)C(=O)N[C@@H](CC1CCCCC1)C(N)=O` here?
The Ki was 10000 nM.
